# From patent US20230348376A1 (TEIJIN PHARMA LIMITED, priority 2020, published 2023)
# Key:
# human VDR = target: T1, human VDR (Homo sapiens, UniProt P11473); experiment: Evaluation of VDR transcription activity in human osteoblasts (HOS cells), luciferase reporter; conditions: Activity (EC50, VDR transcription activity), HOS cells transfected with human VDR, human RXRα and DR3 luciferase reporter; 21 hours
# T1 sequence (P11473 1-427): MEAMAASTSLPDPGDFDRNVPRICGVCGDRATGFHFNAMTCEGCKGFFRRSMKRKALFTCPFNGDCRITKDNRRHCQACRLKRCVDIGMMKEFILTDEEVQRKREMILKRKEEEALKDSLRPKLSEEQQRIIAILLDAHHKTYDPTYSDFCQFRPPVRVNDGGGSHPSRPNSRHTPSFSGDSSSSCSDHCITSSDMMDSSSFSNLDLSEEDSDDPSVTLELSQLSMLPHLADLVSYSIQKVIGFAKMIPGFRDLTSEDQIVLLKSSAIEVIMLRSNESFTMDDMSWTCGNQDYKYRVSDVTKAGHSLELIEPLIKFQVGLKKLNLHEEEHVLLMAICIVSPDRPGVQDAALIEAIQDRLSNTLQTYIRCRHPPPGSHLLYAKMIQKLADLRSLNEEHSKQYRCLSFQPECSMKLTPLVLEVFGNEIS
# T1 sequence (P19793 1-462 partner): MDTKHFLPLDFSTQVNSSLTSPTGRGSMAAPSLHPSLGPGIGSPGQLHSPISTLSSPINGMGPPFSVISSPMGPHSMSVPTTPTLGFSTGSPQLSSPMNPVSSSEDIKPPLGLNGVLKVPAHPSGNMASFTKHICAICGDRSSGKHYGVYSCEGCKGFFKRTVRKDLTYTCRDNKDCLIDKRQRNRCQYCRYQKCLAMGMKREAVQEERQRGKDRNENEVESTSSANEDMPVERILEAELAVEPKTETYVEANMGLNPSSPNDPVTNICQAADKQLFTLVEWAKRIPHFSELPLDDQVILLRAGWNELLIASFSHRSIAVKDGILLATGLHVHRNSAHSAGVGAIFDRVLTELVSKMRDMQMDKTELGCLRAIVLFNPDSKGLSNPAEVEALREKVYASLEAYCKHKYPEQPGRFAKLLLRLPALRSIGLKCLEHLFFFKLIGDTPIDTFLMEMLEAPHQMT
# [1] = test system: mouse neural stem cells (NSCs); experiment: Promoting activity in oligodendrocyte differentiation of mouse neural stem cell (GalC immunostaining); format: cell-based; conditions: day 10, N=5
# Experimental: To NSC basal medium (100 mL) included in this product, B27 (1 mL), Penicillin-Streptomycin (1 mL), Glutamine (1 mL), bFGF (20 μL), EGF (10 μL), and Heparin (100 μL) were added to prepare the growth medium. Mouse neural stem cells were reconstituted in a T-25 flask using the growth medium and proliferated as a neurosphere by suspension culture. The cells were expanded by passaging at a split ratio=1:2 in a CO2 incubator (5% CO2, 37° C., wet) to obtain the required number of cells. ACCUTASE (Innovative Cell Technologies, Cat. No. AT104) was used as the passage reagent.
# The differentiation medium containing test substance was prepared to a target final concentration by diluting a solution of 20 mM compound in DMSO to 10-fold with DMSO and then to 2×10^5-fold with the differentiation medium. Additive-free differentiation medium for control was prepared by diluting DMSO to 2×10^5-fold with the differentiation medium to be a final concentration of 5×10^−5%.
# The mouse neural stem cells were seeded on a poly-L-Lysine/Laminin-coated 96-well plate at a cell density of 2.0×10^4 cells/100 μL/well using the differentiation medium and the culture was started in a CO2 incubator (5% CO2, 37° C., wet). The next day, the medium was replaced with the differentiation medium containing a test substance or an additive-free differentiation medium for control, and evaluation of the test substance (N=5) was started (day 0). The medium was replaced every other day by 60% of the medium in the wells. On day 10, cells were fixed and immunostained.
# After the medium was removed, the cells were fixed by adding 100 μL of 4% paraformaldehyde-PBS and being incubated at room temperature for 30 minutes. Next, the cells were washed 3 times with PBS, 100 μL of 5% Goat Serum/PBS was added thereto, and the mixture was incubated at room temperature for 30 minutes to perform blocking and membrane permeation treatment. […] After the cells were washed 3 times with PBS, 100 μL of PBS was added to the wells, and the wells were photographed with fluorescence microscopy. Images were taken under the same condition in all wells, and blue fluorescence and green fluorescence were simultaneously photographed.
# Using the hybrid cell counting software provided in the fluorescence microscope (Keyence, BZ-X700), co-localized spots of green fluorescence and blue fluorescence were extracted, and the number of these spots was defined as the total number of GalC-positive cells, and the oligodendrocyte differentiation ratio was calculated by the following calculation:the total number of GalC-positive cells/the number of nuclei (number of blue fluorescence spots). A significant difference test was performed by t-test between the additive-free group and the sample-added group.
# [2] = test system: rat oligodendrocyte progenitor cells; experiment: Promotive activity of rat oligodendrocyte progenitor cell differentiation-2 (immunostaining of MBP); format: cell-based; conditions: Test 2; vitamin D derivative 2 μM, T3 30 nM; 4 days
# How it was run: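 Rat OPCs prepared by shaking in separation medium about 22 h at 37 °C, 200 rpm, and collecting the supernatant.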
# [3] = Evaluation of brain penetration in mice (blood and brain concentration at brain Cmax); format: in vivo, mouse; conditions: 1 mg/kg single oral dose, C57BL/6J mice
# How it was run: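 Male C57BL/6J mice (8 weeks, n=3) dosed orally once at 1 […] mg/kg; plasma and brain collected at 0.25, 0.5, 1, 2, 4 and 8 h. Compound extracted with acetonitrile from brain homogenate and plasma, quantified by LC/MS/MS.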
smiles,measurement,setting,value
"C[C@H](CCN1CCOCC1)[C@H]1CC[C@H]2/C(=C/C=C3C[C@@H](O)C[C@H](O)C3)CCC[C@]12C [Compound D023, (1R,3R)-5-(2-((1R,3aS,7aR,E)-7a-methyl-1-((R)-4-morpholinobutan-2-yl)octahydro-4H-inden-4-ylidene)ethylidene)cyclohexane-1,3-diol]",EC50,human VDR,0.01 to 0.1 µM
same,Gal/C positive ratio Average value,[1]; 10 nM,8.63
same,Gal/C positive ratio Average value,[1]; 100 nM,11.51
same,Gal/C positive ratio Average value,[1]; 1000 nM,12.19
same,Mean (number of MBP-positive cells/number of Hoechst33342-positive cells),[2],0.36
same,Concentration in blood (mean ± SD) at brain Cmax,[3]; n=3,580 ± 107 nM
same,Concentration in brain (mean ± SD) at brain Cmax,[3]; n=3,595 ± 23 pmol/g
same,Kp,"[3]; male, C57BL/6J, mouse, brain/plasma, po, 1 mg/kg, read-out: Concentration in brain/in blood ratio at brain Cmax",1.03
